Values quoted from earlier work in patent US8765195B2, “Methods and compositions for increasing sex steroids and growth hormones” (Quality IP Holdings, Inc., priority 2012, dated 2014).

Experiments:
hGH = conditions: for effect on hGH: other amino acids, literature
[1] = subcutaneous injection of 0.06 IU, GH deficient subjects

Row | Molecule | effect on hGH (hGH) | also measured
1 | N[C@@H](Cc1ccccc1)C(=O)O [phenylalanine] | marked increases in hGH | –
2 | N[C@@H](Cc1c[nH]cn1)C(=O)O [histidine] | marked increases in hGH | –
3 | NCCCC[C@H](N)C(=O)O [lysine] | marked increases in hGH | –
4 | N=C(N)NCCC[C@H](N)C(=O)O [arginine] | – | elevation of serum hGH levels (hGH; 30 g, males): 8.6 fold; increase of hGH levels (hGH; intravenous infusion of 183 mg/kg body weight, females): > 20 fold
5 | CSCC[C@H](N)C(=O)O [methionine] | marked increases in hGH | –
6 | HGH: human growth hormone given by subcutaneous injection to GH deficient subjects | – | mean levels of GH reached [1]: 0.4 ng/mL
7 | NCCC[C@H](N)C(=O)O [ornithine] | marked increases in hGH | –
